# Assay results reported in patent publication US9468661B2, “Pyrrolidine derivatives and their use as complement pathway modulators” (priority 2012, dated 2016).
# Molecular target: human factor D (Homo sapiens (Human), UniProt P00746)
# Assay: biochemical
# Assay type: biochemical
# Conditions: Factor D inhibition data using Method 1; recombinant human factor D 10 nM, substrate Z-Lys-thiobenzyl, fluorescence; read-out: IC50
# Method in brief: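 E. coli-expressed recombinant human factor D (10 nM) was preincubated with compound for 1 h at room temperature in 0.1 M Hepes pH 7.5, 1 mM MgCl2, 1 M NaCl, 0.05% CHAPS. Fluorescence (ex 485/em 535 nm) was read after adding Z-Lys-thiobenzyl (200 μM) and 2,4-dinitrobenzenesulfonyl-fluoresceine (25 μM); IC50 came from percent inhibition versus concentration.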
# Chain of human factor D (P00746 26-253): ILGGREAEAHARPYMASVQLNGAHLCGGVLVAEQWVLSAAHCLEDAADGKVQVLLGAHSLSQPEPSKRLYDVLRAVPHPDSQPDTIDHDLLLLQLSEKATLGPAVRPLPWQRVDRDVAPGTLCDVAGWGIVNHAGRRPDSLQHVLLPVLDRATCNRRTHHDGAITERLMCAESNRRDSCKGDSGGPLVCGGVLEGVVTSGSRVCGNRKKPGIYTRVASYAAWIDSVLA
row,SMILES,IC50
1,"NC(=O)c1nn(CC(=O)N2[C@H](C(=O)NC[C@H]3CC3(Cl)Cl)C[C@@]3(CO)C[C@@H]23)c2ccccc12 [Example 52, 1-(2-{(1R,3S,5S)-3-[((R)-2,2-Dichloro-cyclopropylmethyl)-carbamoyl]-5-hydroxymethyl-2-aza-bicyclo[3.1.0]hex-2-yl}-2-oxo-ethyl)-1H-indazole-3-carboxylic acid amide]",56 nM
2,"CC(=O)c1nn(CC(=O)N2[C@@H]3C[C@@H]3C[C@H]2C(=O)NCC2(C)CC2(Cl)Cl)c2cnccc12 (stereo partly drawn) [Example 13, (1R,3S,5R)-2-[2-(3-Acetyl-pyrazolo[3,4-c]pyridin-1-yl)-acetyl]-2-aza-bicyclo[3.1.0] hexane-3-carboxylic acid (2,2-dichloro-1-methyl-cyclopropylmethyl)-amide]",958 nM
3,"CC(=O)c1nn(CC(=O)N2[C@@H]3C[C@@H]3C[C@H]2C(=O)NCC2CCCC(C)(C)C2)c2cnccc12 (single isomer, unassigned; dia 2) [Example 18]",389 nM
4,"CC(=O)c1nn(CC(=O)N2[C@@H]3C[C@@H]3C[C@H]2C(=O)N[C@H](C)C2CCCCC2)c2cnccc12 [Example 6, (1R,3S,5R)-2-[2-(3-Acetyl-pyrazolo[3,4-c]pyridin-1-yl)-acetyl]-2-aza-bicyclo[3.1.0] hexane-3-carboxylic acid ((R)-1-cyclohexyl-ethyl)-amide]",71 nM
5,"NC(=O)c1nn(CC(=O)N2[C@@H]3C[C@@H]3C[C@H]2C(=O)N[C@H](CO)C23CC(C(F)(F)F)(C2)C3)c2ccccc12 [Example 123, 1-(2-{(1R,3S,5R)-3-[(S)-2-Hydroxy-1-(3-trifluoromethyl-bicyclo[1.1.1]pent-1-yl)-ethylcarbamoyl]-2-aza-bicyclo[3.1.0]hex-2-yl}-2-oxo-ethyl)-1H-indazole-3-carboxylic acid amide]",1240 nM
6,"CC(=O)c1nn(CC(=O)N2[C@@H]3C[C@@H]3C[C@H]2C(=O)NC[C@@H]2CC2(Cl)Cl)c2ccc(OCc3ncccn3)cc12 [Example 93, (1R,3S,5R)-2-{2-[3-Acetyl-5-(pyrimidin-2-ylmethoxy)-indazol-1-yl]-acetyl}-2-aza-bicyclo[3.1.0] hexane-3-carboxylic acid ((S)-2,2-dichloro-cyclopropylmethyl)-amide]",19 nM
7,"CC(=O)c1nn(CC(=O)N2[C@@H]3C[C@@H]3C[C@H]2C(=O)N[C@H](CO)C2CCCCC2)c2cnccc12 [Example 9, (1R,3S,5R)-2-[2-(3-Acetyl-pyrazolo[3,4-c]pyridin-1-yl)-acetyl]-2-aza-bicyclo[3.1.0] hexane-3-carboxylic acid ((S)-1-cyclohexyl-2-hydroxy-ethyl)-amide]",469 nM
8,"CC(=O)c1nn(CC(=O)N2[C@@H]3C[C@@H]3C[C@H]2C(=O)NC[C@H]2CC2(Cl)Cl)c2ccc(O)cc12 [Example 122, (1R,3S,5R)-2-[2-(3-Acetyl-5-hydroxy-indazol-1-yl)-acetyl]-2-aza-bicyclo[3.1.0]hexane-3-carboxylic acid ((R)-2,2-dichloro-cyclopropylmethyl)-amide]",58 nM
9,"Cc1nccc2c(C(N)=O)nn(CC(=O)N3[C@@H]4C[C@@H]4C[C@H]3C(=O)N[C@H](C)[C@H]3CC3(Cl)Cl)c12 [Example 44, 1-(2-{(1R,3S,5R)-3-[(R)-1-((R)-2,2-Dichloro-cyclopropyl)-ethylcarbamoyl]-2-aza-bicyclo[3.1.0]hex-2-yl}-2-oxo-ethyl)-7-methyl-1H-pyrazolo[3,4-c]pyridine-3-carboxylic acid amide]",41 nM
10,"NC(=O)c1nn(CC(=O)N2[C@@H]3C[C@@H]3C[C@H]2C(=O)NC[C@H]2CC2(Cl)Cl)c2ccccc12 [Example 31, 1-(2-{(1R,3S,5R)-3-[((R)-2,2-Dichloro-cyclopropylmethyl)-carbamoyl]-2-aza-bicyclo[3.1.0]hex-2-yl}-2-oxo-ethyl)-1H-indazole-3-carboxylic acid amide]",32 nM
11,"NC(=O)c1nn(CC(=O)N2[C@@H]3C[C@@H]3C[C@H]2C(=O)NC[C@H]2CC2(Cl)Cl)c2ccc(OCc3ncccn3)cc12 [Example 110, 1-(2-{(1R,3S,5R)-3-[((R)-2,2-Dichloro-cyclopropylmethyl)-carbamoyl]-2-aza-bicyclo [3.1.0]hex-2-yl}-2-oxo-ethyl)-5-(pyrimidin-2-ylmethoxy)-1H-indazole-3-carboxylic acid amide]",41 nM
12,"CC(=O)c1nn(CC(=O)N2[C@@H]3C[C@@H]3C[C@H]2C(=O)NC2(C3CCCCC3)CC2)c2cnccc12 [Example 15, (1R,3S,5R)-2-[2-(3-Acetyl-pyrazolo[3,4-c]pyridin-1-yl)-acetyl]-2-aza-bicyclo[3.1.0] hexane-3-carboxylic acid (1-cyclohexyl-cyclopropyl)-amide]",358 nM
13,"CC(=O)c1nn(CC(=O)N2[C@@H]3C[C@@H]3C[C@H]2C(=O)NCC2CC(C)C2)c2ccc(OCc3ncccn3)cc12 (mixture of isomers) [Example 65, (1R,3S,5R)-2-{2-[3-Acetyl-5-(pyrimidin-2-ylmethoxy)-indazol-1-yl]-acetyl}-2-aza-bicyclo[3.1.0] hexane-3-carboxylic acid (3-methyl-cyclobutylmethyl)-amide (mixture of 4 diastereoisomers)]",20 nM
14,"Cc1ccc2c(C(N)=O)nn(CC(=O)N3[C@@H]4C[C@@H]4C[C@H]3C(=O)NC[C@H]3CC3(Cl)Cl)c2c1 [Example 113, 1-(2-{(1R,3S,5R)-3-[((R)-2,2-Dichloro-cyclopropylmethyl)-carbamoyl]-2-aza-bicyclo[3.1.0]hex-2-yl}-2-oxo-ethyl)-6-methyl-1H-indazole-3-carboxylic acid amide]",74 nM
15,"CC1CCCC1CNC(=O)[C@@H]1C[C@H]2C[C@H]2N1C(=O)Cn1nc(C(N)=O)c2ccncc21 (single isomer, unassigned; dia 1) [Example 85]",1410 nM
16,"CC(=O)c1nn(CC(=O)N2[C@@H]3C[C@@H]3C[C@H]2C(=O)NCC2C(C)(C)C2(C)C)c2ncccc12 [Example 2, (1R,3S,5R)-2-[2-(3-Acetyl-pyrazolo[3,4-b]pyridin-1-yl)-acetyl]-2-aza-bicyclo[3.1.0] hexane-3-carboxylic acid (2,2,3,3-tetramethyl-cyclopropylmethyl)-amide]",1850 nM
17,"C[C@@H](NC(=O)[C@@H]1C[C@H]2C[C@H]2N1C(=O)Cn1nc(C(N)=O)c2ccncc21)C1CCCCC1 [Example 55, 1-{2-[(1R,3S,5R)-3-((R)-1-Cyclohexyl-ethylcarbamoyl)-2-aza-bicyclo[3.1.0]hex-2-yl]-2-oxo-ethyl}-1H-pyrazolo[3,4-c]pyridine-3-carboxylic acid amide]",158 nM
18,"CC1CCCC(CNC(=O)[C@@H]2C[C@H]3C[C@H]3N2C(=O)Cn2nc(C(N)=O)c3ccncc32)C1 (single isomer, unassigned; dia 4) [Example 118]",159 nM
19,"NC(=O)c1nn(CC(=O)N2[C@@H]3C[C@@H]3C[C@H]2C(=O)NC[C@H]2CC2(Cl)Cl)c2ccc(Cl)cc12 [Example 97, 5-Chloro-1-(2-{(1R,3S,5R)-3-[((R)-2,2-dichloro-cyclopropylmethyl)-carbamoyl]-2-aza-bicyclo[3.1.0]hex-2-yl}-2-oxo-ethyl)-1H-indazole-3-carboxylic acid amide]",218 nM
20,"NC(=O)c1nn(CC(=O)N2[C@@H]3C[C@@H]3C[C@H]2C(=O)NC[C@H]2CC2(Cl)Cl)c2cnccc12 [Example 72, 1-(2-{(1R,3S,5R)-3-[((R)-2,2-Dichloro-cyclopropylmethyl)-carbamoyl]-2-aza-bicyclo[3.1.0]hex-2-yl}-2-oxo-ethyl)-1H-pyrazolo[3,4-c]pyridine-3-carboxylic acid amide]",36 nM
21,"CC(=O)c1nn(CC(=O)N2[C@@H]3C[C@@H]3C[C@H]2C(=O)NCC2CCCC2(C)C)c2cnccc12 (single isomer, unassigned; dia 1) [Example 19]",1610 nM

# Same assay, conditions: IC50, Factor D inhibition data using Method 1; recombinant human factor D 10 nM, substrate Z-Lys-thiobenzyl, fluorescence
row,SMILES,IC50
1,"CC(=O)c1nn(CC(=O)N2[C@@H]3C[C@@H]3C[C@H]2C(=O)NCC2C(C)C2(Cl)Cl)c2ccc(OCc3ncccn3)cc12 (single isomer, unassigned; dia 1) [Example 75, (1R,3S,5R)-2-{2-[3-Acetyl-5-(pyrimidin-2-ylmethoxy)-indazol-1-yl]-acetyl}-2-aza-bicyclo[3.1.0] hexane-3-carboxylic acid ((1R,3R) or (1S,3S)-2,2-dichloro-3-methyl-cyclopropylmethyl)-amide-Dia 1]",7 nM
2,"CC1C(CNC(=O)[C@@H]2C[C@H]3C[C@H]3N2C(=O)Cn2nc(C(N)=O)c3ccncc32)C1(Cl)Cl (single isomer, unassigned; dia 1) [Example 81, 1-(2-{(1R,3S,5R)-3-[((1R,3R) or (1S,3R)-2,2-Dichloro-3-methyl-cyclopropylmethyl)-carbamoyl]-2-aza-bicyclo[3.1.0]hex-2-yI}-2-oxo-ethyl)-1H-pyrazolo[3,4-c]pyridine-3-carboxylic acid amide-Dia 1]",21 nM
3,"CC1C(CNC(=O)[C@@H]2C[C@H]3C[C@H]3N2C(=O)Cn2nc(C(N)=O)c3ccccc32)C1(Cl)Cl (single isomer, unassigned; dia 2) [Example 74, 1-(2-{(1R,3S,5R)-3-[((1R,3R) or (1S,3S)-2,2-Dichloro-3-methyl-cyclopropylmethyl)-carbamoyl]-2-aza-bicyclo[3.1.0]hex-2-yl}-2-oxo-ethyl)-1H-indazole-3-carboxylic acid amide-Dia 2]",12 nM
4,"[2H]C([2H])([2H])[C@@H](NC(=O)[C@@H]1C[C@H]2C[C@H]2N1C(=O)Cn1nc(C(N)=O)c2ccccc21)[C@H]1CC1(Cl)Cl [Example 121, 1-(2-{(1R,3S,5R)-3-[(R)-1-((R)-2,2-Dichloro-cyclopropyl)-ethyl-2,2,2-D3-carbamoyl]-2-aza-bicyclo[3.1.0]hex-2-yl}-2-oxo-ethyl)-1H-indazole-3-carboxylic acid amide]",14 nM
